In general, IC50 refers to the concentration at which inhibition is half-maximal.

Where two headings read alike, the source gives them in different places. Some results are limits rather than exact numbers.

20 compounds from US20140107109A1, “AMINO-DIHYDROTHIAZINE AND AMINO-DIOXIDO DIHYDROTHIAZINE COMPOUNDS AS BETA-SECRETASE ANTAGONISTS AND METHODS OF USE” (Amgen Inc., priority 2012, published 2014) can be followed below.

The subject of assay [1] is Aβ40 in conditioned medium of cells stably expressing Amyloid Precursor Protein (APP). The assay can be described thus: In vitro BACE cell-based assay (HEK cell assay), Aβ40 sandwich ELISA. The conditions noted are these: Homo sapiens, HEK293. The gist of the method:
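APP-stably expressing cells (40K/well, grown 24 h in DMEM/10% FBS) were treated 24 h with compounds in 10-point dose response starting at 100 μM or 10 μM, 0.1% DMSO final. Secreted Aβ40 was measured by sandwich ELISA (pAb40 capture, biotinylated 6E10 detection, europium time-resolved fluorescence); IC50 from percent inhibition.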

A further assay addresses T1, Cathepsin D (Cat D) (Homo sapiens, UniProt P07339).
T1 construct: Recombinant Cat D was expressed in CHO cells; made in house; host or cells: CHO cells
Kind of assay: In vitro enzymatic Cathepsin D (Cat D) FRET assay. The format is biochemical. The following applies: read-out: CatD IC50. The gist of the method:
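Recombinant Cat D expressed in CHO cells, used at 9 nM and pre-incubated one hour with serially diluted inhibitor in DMSO. Peptide substrate carries a fluorophore and quencher flanking the cleavage site; reaction stopped with Tris buffer raising pH to neutrality, then fluorescence read.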

In assay [2] the target is Beta Secretase enzyme (BACE1) (Homo sapiens, UniProt P56817). The assay can be described thus: In vitro enzymatic BACE FRET assay. The format is biochemical. The conditions noted are these: read-out: BACE1 FRET assay IC50. A digest of the protocol: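 BACE1 cleavage of a 50 nM fluorophore/quencher peptide FRET substrate ran for one hour in 0.05 M acetate pH 4.2, 10% DMSO, 100 uM genapol. Tris buffer raised pH to neutrality to stop the reaction before fluorescence was read (excitation 488 nm, […]).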
Beta Secretase enzyme (BACE1), sequence (P56817 46-501): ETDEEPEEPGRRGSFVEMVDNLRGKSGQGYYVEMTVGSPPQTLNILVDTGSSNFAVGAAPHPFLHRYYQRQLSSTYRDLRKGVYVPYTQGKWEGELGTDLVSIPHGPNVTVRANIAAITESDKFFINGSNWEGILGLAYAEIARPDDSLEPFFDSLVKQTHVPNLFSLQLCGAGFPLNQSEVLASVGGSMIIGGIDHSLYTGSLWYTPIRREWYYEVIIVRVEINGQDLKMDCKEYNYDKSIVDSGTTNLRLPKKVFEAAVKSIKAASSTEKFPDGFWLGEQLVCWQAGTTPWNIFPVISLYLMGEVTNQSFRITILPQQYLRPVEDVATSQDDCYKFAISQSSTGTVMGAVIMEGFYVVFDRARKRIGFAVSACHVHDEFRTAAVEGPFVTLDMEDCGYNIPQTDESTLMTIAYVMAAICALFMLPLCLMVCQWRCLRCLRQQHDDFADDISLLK

T1 sequence (P07339 65-412, species assumed): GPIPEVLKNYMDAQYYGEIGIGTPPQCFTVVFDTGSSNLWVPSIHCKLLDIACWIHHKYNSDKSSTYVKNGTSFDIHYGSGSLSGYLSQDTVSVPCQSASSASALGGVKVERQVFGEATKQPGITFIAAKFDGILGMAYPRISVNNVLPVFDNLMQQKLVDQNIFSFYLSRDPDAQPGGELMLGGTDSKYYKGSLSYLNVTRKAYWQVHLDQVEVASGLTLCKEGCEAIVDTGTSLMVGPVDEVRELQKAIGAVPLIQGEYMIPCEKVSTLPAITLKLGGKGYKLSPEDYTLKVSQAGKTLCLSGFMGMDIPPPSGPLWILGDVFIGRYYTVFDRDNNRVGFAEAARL

With `C[C@@]1(c2cc(Nc3nccc4cc(C#N)cnc34)ccc2F)CS(=O)(=O)C2(CCC2)C(N)=N1` [Example 117, (R)-8-((3-(9-amino-7-methyl-5,5-dioxido-5-thia-8-azaspiro[3.5]non-8-en-7-yl)-4-fluorophenyl)amino)-1,7-naphthyridine-3-carbonitrile], the IC50 in assay [1] (average IC50, cell assay) amounted to 0.0051 µM; on Cathepsin D (Cat D) it was 28.3 µM; in assay [2] (average IC50, enzyme assay), 0.00189 µM.
For `C[C@@]1(c2cc(Br)ccc2F)CS(=O)(=O)[C@]2(C[C@@H](F)C2)C(N)=N1` [Example 118, (2S,4s,7R)-9-amino-7-(5-bromo-2-fluorophenyl)-2-fluoro-7-methyl-5-thia-8-azaspiro[3.5]non-8-ene 5,5-dioxide], in that order: above 15.6 µM, 31.1 µM and 4.09 µM.
Turning to `C[C@@]1(c2cc(NC(=O)c3ccc(Cl)cn3)ccc2F)CS(=O)(=O)C2(CC(F)(F)C2)C(N)=N1` [Example 120, (R)—N-(3-(9-amino-2,2-difluoro-7-methyl-5,5-dioxido-5-thia-8-azaspiro[3.5]non-8-en-7-yl)-4-fluorophenyl)-5-chloropicolinamide], the IC50 in assay [1] worked out at 0.0272 µM; at Cathepsin D (Cat D), 148 µM; in assay [2], 0.0013 µM.
Taken in the same sequence, the figures for `Cc1cc(OC(F)F)cnc1C(=O)Nc1ccc(F)c([C@]2(C)CS(=O)(=O)C3(CCC3)C(N)=N2)c1` [Example 121, (R)—N-(3-(9-amino-7-methyl-5,5-dioxido-5-thia-8-azaspiro[3.5]non-8-en-7-yl)-4-fluorophenyl)-5-(difluoromethoxy)-3-methylpicolinamide] were 0.0074 µM, 67.5 µM and 0.00311 µM.
Regarding `Cc1cc(C(F)F)cnc1C(=O)Nc1ccc(F)c([C@]2(C)CS(=O)(=O)C3(CCC3)C(N)=N2)c1` [Example 123, (R)—N-(3-(9-amino-7-methyl-5,5-dioxido-5-thia-8-azaspiro[3.5]non-8-en-7-yl)-4-fluorophenyl)-5-(difluoromethyl)-3-methylpicolinamide], the IC50 in assay [1] turned out to be 0.0063 µM; at Cathepsin D (Cat D) it was 150 µM; in assay [2] it was 0.00457 µM.
`Cc1cc(Cl)cnc1C(=O)Nc1ccc(F)c([C@]2(C)CS(=O)(=O)C3(CC(F)(F)C3)C(N)=N2)c1` [Example 124, (R)—N-(3-(9-amino-2,2-difluoro-7-methyl-5,5-dioxido-5-thia-8-azaspiro[3.5]non-8-en-7-yl)-4-fluorophenyl)-5-chloro-3-methylpicolinamide]: the IC50 in assay [1] is 0.0246 µM; on Cathepsin D (Cat D) it was 96.3 µM; in assay [2], below 0.002 µM.
For the compound `C[C@@]1(c2cc(NC(=O)c3ccc(Cl)cn3)ccc2F)CS(=O)(=O)[C@]2(C[C@@H](F)C2)C(N)=N1` [Example 125, N-(3-((2S,4s,7R)-9-amino-2-fluoro-7-methyl-5,5-dioxido-5-thia-8-azaspiro[3.5]non-8-en-7-yl)-4-fluorophenyl)-5-chloropicolinamide], the IC50 in assay [1] came out at 0.0107 µM; at Cathepsin D (Cat D), 42.8 µM; in assay [2], 0.001 µM.
As for `Cc1cc(OC(F)F)cnc1C(=O)Nc1ccc(F)c([C@]2(C)CS(=O)(=O)C3(CC(F)(F)C3)C(N)=N2)c1` [Example 126, (R)—N-(3-(9-amino-2,2-difluoro-7-methyl-5,5-dioxido-5-thia-8-azaspiro[3.5]non-8-en-7-yl)-4-fluorophenyl)-5-(difluoromethoxy)-3-methylpicolinamide], the IC50 in assay [1] was determined as 0.0177 µM; on Cathepsin D (Cat D) it was 45.6 µM; in assay [2], 0.00376 µM.
On to `COc1cnc2c(Nc3ccc(F)c([C@]4(C)CS(=O)(=O)C5(CC(F)(F)C5)C(N)=N4)c3)nccc2n1` [Example 128, (R)-9-amino-2,2-difluro-7-(2-fluoro-5-((2-methoxypyrido[3,4b]pyrazin-5-yl)amino)phenyl)-7-methyl-5-thia-8-azaspiro[3.5]non-8-ene 5,5-dioxide], for which the IC50 in assay [1] (average IC50, cell assay) was determined as 0.199 µM; on Cathepsin D (Cat D), 330 µM; in assay [2] (average IC50, enzyme assay), 0.0259 µM.
Regarding `C[C@]1(c2cc(NC(=O)c3ccc(Cl)cn3)ccc2F)N=C(N)C2(CCC2)S(=O)(=O)[C@@H]1F` [Example 131, N-(3-((6S,7R)-9-amino-6-fluoro-7-methyl-5,5-dioxido-5-thia-8-azaspiro[3.5]non-8-en-7-yl)-4-fluorophenyl)-5-chloropicolinamide], the IC50 in assay [1] amounted to 0.00901 µM; at Cathepsin D (Cat D), 162 µM; in assay [2], 0.0016 µM.
Taken in the same sequence, the figures for `Cc1cc(OC(F)F)cnc1C(=O)Nc1ccc(F)c([C@@]2(C)N=C(N)C3(CCC3)S(=O)(=O)[C@@H]2F)c1` [Example 132, N-(3-((6S,7R)-9-amino-6-fluoro-7-methyl-5,5-dioxido-5-thia-8-azaspiro[3.5]non-8-en-7-yl)-4-fluorophenyl)-5-(difluoromethoxy)-3-methylpicolinamide] were 0.0058 µM, 61.8 µM and 0.00297 µM.
Taken in the same sequence, the figures for `Cc1cc(C(F)F)cnc1C(=O)Nc1ccc(F)c([C@@]2(C)N=C(N)C3(CCC3)S(=O)(=O)[C@@H]2F)c1` [Example 136, N-(3-((6S,7R)-9-amino-6-fluoro-7-methyl-5,5-dioxido-5-thia-8-azaspiro[3.5]non-8-en-7-yl)-4-fluorophenyl)-5-(difluoromethyl)-3-methylpicolinamide] were 0.0049 µM, 236 µM and 0.0021 µM.
For `COc1cnc(C(=O)Nc2ccc(F)c([C@@]3(C)N=C(N)C4(CCC4)S(=O)(=O)[C@@H]3F)c2)c(C)c1` [Example 137, N-(3-((6S,7R)-9-amino-6-fluoro-7-methyl-5,5-dioxido-5-thia-8-azaspiro[3.5]non-8-en-7-yl)-4-fluorophenyl)-5-methoxy-3-methylpicolinamide], in that order: 0.0064 µM, 81.3 µM and 0.00363 µM.
Consider `COc1cc(Cl)cnc1C(=O)Nc1ccc(F)c([C@@]2(C)N=C(N)C3(CCC3)S(=O)(=O)[C@@H]2F)c1` [Example 139, N-(3-((6S,7R)-9-amino-6-fluoro-7-methyl-5,5-dioxido-5-thia-8-azaspiro[3.5]non-8-en-7-yl)-4-fluorophenyl)-5-chloro-3-methoxypicolinamide], for which the IC50 was determined as 0.0118 µM in assay [1], 408 µM on Cathepsin D (Cat D) and 0.0038 µM in assay [2].
For `C[C@]1(c2cc(NC(=O)c3cnc(C(F)F)cn3)ccc2F)N=C(N)C2(CCC2)S(=O)(=O)[C@@H]1F` [Example 140, N-(3-((6S,7R)-9-amino-6-fluoro-7-methyl-5,5-dioxido-5-thia-8-azaspiro[3.5]non-8-en-7-yl)-4-fluorophenyl)-5-(difluoromethyl)pyrazine-2-carboxamide], in that order: 0.0146 µM, above 400 µM and 0.0088 µM.
Turning to `Cc1cc(OC(F)F)cnc1C(=O)Nc1ccc(F)c([C@]2(C)CS(=O)(=O)C(C)(C)C(N)=N2)c1` [Example 144, (R)—N-(3-(5-amino-3,6,6-trimethyl-1,1-dioxido-3,6-dihydro-2H-1,4-thiazin-3-yl)-4-fluorophenyl)-5-(difluoromethoxy)-3-methylpicolinamide], the IC50 in assay [1] came out at 0.0016 µM; on Cathepsin D (Cat D), 96.7 µM; in assay [2] it was 0.0006 µM.
For the compound `Cc1c(CNc2cc([C@]3(C)CS(=O)(=O)C(C)(C)C(N)=N3)c(F)cn2)nc2ccc(Cl)cn12` [Example 145, (R)-5-amino-3-(2-(((6-chloro-3-methylimidazo[1,2-a]pyridin-2-yl)methyl)amino)-5-fluoropyridin-4-yl)-3,6,6-trimethyl-3,6-dihydro-2H-1,4-thiazine-1,1-dioxide], the half-maximal inhibitory concentration (IC50) in assay [1] (average IC50, HEK cell assay) came to 0.412 µM; on Cathepsin D (Cat D), 102 µM; in assay [2] (average IC50, enzyme assay), 0.44 µM.
As to `C[C@@]1(c2cc(Br)ncc2F)CS(=O)(=O)C2(CCC2)C(N)=N1` [Example 147, (R)-9-amino-7-(2-bromo-5-fluoropyridin-4-yl)-7-methyl-5-thia-8-azaspiro[3.5]non-8-ene 5,5-dioxide], the half-maximal inhibitory concentration (IC50) was above 15.6 µM in assay [1] (average IC50, cell assay); 43.5 µM at Cathepsin D (Cat D); 17 µM in assay [2] (average IC50, enzyme assay).
Regarding `Cc1cc(OC(F)F)cnc1C(=O)Nc1ccc(F)c([C@]2(CF)CS(=O)(=O)C(C)(C)C(N)=N2)c1` [Example 148, (S)—N-(3-(5-amino-3-(fluoromethyl)-6,6-dimethyl-1,1-dioxido-3,6-dihydro-2H-1,4-thiazin-3-yl)-4-fluorophenyl)-5-(difluoromethoxy)-3-methylpicolinamide], the IC50 in assay [1] amounted to 0.0091 µM; at Cathepsin D (Cat D), 213 µM; in assay [2], 0.00163 µM.
As for `Cc1cc(OCCF)cnc1C(=O)Nc1ccc(F)c([C@]2(CF)CS(=O)(=O)C(C)(C)C(N)=N2)c1` [Example 149, (S)—N-(3-(5-amino-3-(fluoromethyl)-6,6-dimethyl-1,1-dioxido-3,6-dihydro-2H-1,4-thiazin-3-yl)-4-fluorophenyl)-5-(2-fluoroethoxy)-3-methylpicolinamide], the IC50 in assay [1] (average IC50, cell assay) was 0.0651 µM; on Cathepsin D (Cat D), 855 µM; in assay [2] (average IC50, enzyme assay), 0.00271 µM.
